Source: ChEMBL document CHEMBL4673360, “Discovery of novel HIV-1 integrase-LEDGF/p75 allosteric inhibitors based on a pyridine scaffold forming an intramolecular hydrogen bond” (Bioorg Med Chem Lett, 2021)

Columns and labels:
[1] = test system: Human immunodeficiency virus 1; assay: Antiviral activity against HIV-1 harbouring T174I mutant infected in human MT4 cells by MTT assay; assay type: functional, organism-based; conditions: Human immunodeficiency virus 1, MT4
[2] = Cytotoxicity against human MT4 cells by MTT assay; assay type: cell-based
[3] = test system: Human immunodeficiency virus 1; assay: Antiviral activity against wild type HIV-1 infected in human MT4 cells by MTT assay; assay type: functional, organism-based; conditions: Human immunodeficiency virus 1, MT4
[4] = AUC in rat at 0.5 mg/kg, iv; assay type: ADME, organism-based; design: dose 0.5 mg/kg; conditions: in vivo
[5] = Oral bioavailability in rat at 1 mg/kg; assay type: ADME, organism-based; conditions: in vivo
[6] = Metabolic stability in human liver microsomes assessed as parent compound remaining; assay type: ADME, Microsome
[7] = Elimination half-life in rat at 0.5 mg/kg, iv or 1 mg/kg, po; assay type: ADME, organism-based; conditions: in vivo, read-out: LambdaZ (converted)
[8] = Total clearance in rat at 0.5 mg/kg, iv or 1 mg/kg, po; assay type: ADME, organism-based; conditions: in vivo
[9] = Metabolic stability in rat liver microsomes assessed as parent compound remaining; assay type: ADME, Microsome

Structure (SMILES)	EC50 [1]	CC50 [2]	EC50 [3]	also measured
Cc1ccc(-c2c(C)nc(NS(=O)(=O)c3cccc4ccccc34)c(C)c2C(OC(C)(C)C)C(=O)O)cc1C (stereo not given)	1000 nM	16000 nM	32 nM	
Cc1ccc(-c2c(C)nc(NC(=O)NC3CCCCC3)c(C)c2C(OC(C)(C)C)C(=O)O)cc1C (stereo not given)	> 1000 nM	7900 nM	6.6 nM	AUC [4]: 127 ng·h/mL; bioavailability [5]: 9.2%; Stabilty [6]: 65%; half-life [7]: 1.6 h; clearance [8]: 12.5 mL/min/kg; Stabilty [9]: 66%
Cc1nc(NC(=O)NC2CCCCC2)c(C)c(C(OC(C)(C)C)C(=O)O)c1-c1ccc2c(c1)NCCO2 (stereo not given)		30000 nM	> 100 nM	
Cc1ccc(-c2c(C)nc(C(=O)NCc3ccccc3)c(C)c2C(OC(C)(C)C)C(=O)O)cc1C (stereo not given)		54000 nM	180 nM	
COc1ccc(Nc2nc(C)c(-c3ccc(C)c(C)c3)c(C(OC(C)(C)C)C(=O)O)c2C)cc1 (stereo not given)		28000 nM	220 nM	
Cc1ccc(-c2c(C)nc(NC(=O)NC3CCCCCC3)c(C)c2C(OC(C)(C)C)C(=O)O)cc1C (stereo not given)	> 1000 nM	7700 nM	11 nM	
Cc1nc(NC(=O)NC2CCCCC2)c(C)c(C(OC(C)(C)C)C(=O)O)c1-c1ccc(C(F)(F)F)cc1 (stereo not given)	7700 nM	9800 nM	61 nM	
Cc1ccc(-c2c(C)nc(NC(=O)NC3CCCC3)c(C)c2C(OC(C)(C)C)C(=O)O)cc1C (stereo not given)	> 1000 nM	8000 nM	8.3 nM	
Cc1ccc(-c2c(C)nc(NC(=O)NCCc3ccccc3)c(C)c2C(OC(C)(C)C)C(=O)O)cc1C (stereo not given)	> 2000 nM	11000 nM	20 nM	
Cc1ccc(-c2c(C)nc(Nc3nc4ccccc4n3C)c(C)c2C(OC(C)(C)C)C(=O)O)cc1C (stereo not given)		14000 nM	190 nM	
Cc1ccc(-c2c(C)nc(C(=O)N(C)Cc3ccccc3)c(C)c2C(OC(C)(C)C)C(=O)O)cc1C (stereo not given)		77000 nM	360 nM	
Cc1ccc(-c2c(C)nc(Nc3nc4ccccc4s3)c(C)c2C(OC(C)(C)C)C(=O)O)cc1C (stereo not given)		6600 nM	350 nM	
COc1ccc(-c2c(C)nc(NC(=O)NC3CCCCC3)c(C)c2C(OC(C)(C)C)C(=O)O)cc1 (stereo not given)	750 nM	19000 nM	10 nM	
Cc1ccc(-c2c(C)nc(NC(=O)Nc3ccccc3)c(C)c2C(OC(C)(C)C)C(=O)O)cc1C (stereo not given)	> 1000 nM	9900 nM	11 nM	
Cc1ccc(-c2c(C)nc(NC(=O)NCc3ccccc3)c(C)c2C(OC(C)(C)C)C(=O)O)cc1C (stereo not given)	> 4000 nM	17000 nM	35 nM	
Cc1ccc(-c2c(C)nc(NC(=O)NC3CCOCC3)c(C)c2C(OC(C)(C)C)C(=O)O)cc1C (stereo not given)	> 5000 nM	29000 nM	45 nM	
Cc1nc(NC(=O)NC2CCCCC2)c(C)c(C(OC(C)(C)C)C(=O)O)c1-c1ccc2c(c1)CCCO2 (stereo not given)	560 nM	17000 nM	21 nM	
Cc1nc(NC(=O)NC2CCCCC2)c(C)c(C(OC(C)(C)C)C(=O)O)c1-c1ccc(Cl)cc1 (stereo not given)	1800 nM	16000 nM	17 nM	
Cc1nc(NC(=O)NC2CCCCC2)c(C)c(C(OC(C)(C)C)C(=O)O)c1-c1ccc2c(c1C)CCCO2 (stereo not given)	270 nM	11000 nM	6.6 nM	
Cc1nc2ccccc2c(-c2ccc3c4c(ccnc24)CCO3)c1[C@H](OC(C)(C)C)C(=O)O [BI-224436]	> 5000 nM	> 50000 nM	22 nM	
